# Several values for one entry are separate records, joined by “and”; a condition that tells them apart may be missing. Identical values can stand only once.
# Legend:
# [1] = Anion binding constants by UV-Vis titration, SbF6^−; details: 20% MeOH/CHCl3; for logβ2: 2:1 sandwich; for K2/K1: SbF6^−, positive cooperativity
# Protocol: (§1) FIG. 2B depicts an exemplary plot of anion binding constants obtained from equilibrium restricted factor analysis (D. A. Griend, D. K. Bediako, M. J. DeVries, N. A. DeJong, L. P. Heeringa, Inorg Chem 2008, 47, 656-662) of UV-Vis titration data (20% MeOH/CHCl3). Salts added as TBA^+ with exception of FeCl4^− added as the 1-ethyl-3-methylimidazolium salt.
# (§2) The tricarb-anion stability constants were determined from UV-Vis titrations and evaluated using equilibrium restricted factor analysis (D. A. Griend, D. K. Bediako, M. J. DeVries, N. A. DeJong, L. P. Heeringa, Inorg Chem 2008, 47, 656-662) as implemented with Sivvu by employing the following equilibria: tricarb+X^− ? tricarb·X^−K1 (1) tricarb·X^−+tricarb ? tricarb2·X^−K2 (2) 2 tricarb+X^− ? tricarb2·X^−β2 (3)
# [2] = Anion binding constants by UV-Vis titration, ClO4^−; details: 20% MeOH/CHCl3; for logβ2: 2:1 sandwich; for K2/K1: ClO4^−, positive cooperativity
# Protocol: as §1, §2
# [3] = Anion binding constants by UV-Vis titration, I^−; details: 20% MeOH/CHCl3; for K2/K1: I^−, positive cooperativity
# Protocol: as §1, §2
# [4] = Anion binding constants by UV-Vis titration, PF6^−; details: 20% MeOH/CHCl3; for logβ2: 2:1 sandwich; for K2/K1: PF6^−, positive cooperativity
# Protocol: as §1, §2
# [5] = Anion binding constants by UV-Vis titration, ReO4^−; details: 20% MeOH/CHCl3; for K2/K1: ReO4^−, positive cooperativity
# Protocol: as §1, §2
# [6] = Anion binding constants by UV-Vis titration, FeCl4^−; details: 20% MeOH/CHCl3; for K2/K1: FeCl4^−, positive cooperativity
# Protocol: as §1, §2
# [7] = Solution phase self-association, variable concentration UV-Vis, isodesmic equal-K model; assay type: physicochemical
# From the text: Solution phase self-association was examined using variable concentration ^1H NMR and UV-Vis spectra. All aromatic ^1H NMR peaks shift upfield (FIG. 3B) with concentration (10×10^−6 M−2×10^−3 M) consistent with p stacking (R. B. Martin, Chem. Rev. 1996, 96, 3043-3064). UV-Vis spectroscopy was used to quantify the extent of self-association (S. A. Jenekhe, L. Lu, M. M. Alam, Macromolecules 2001, 34, 7315-7324) (0.7 to 24×10^−6 M, FIG. 3C). An isodesmic equal-K model (R. B. Martin, Chem. Rev. 1996, 96, 3043-3064) was used to quantify self-association (KE) to give KE=300,000±10,000 M^−1 in 20% MeOH/CHCl3 (ε=10.4). The self-association is high relative to other macrocycles (W. Zhang, J. S. Moore, Angew. Chem. Int. Ed. 2006, 45, 4416-4439) and believed to be driven by solvophobic effects and dipolar coupling. Consistent with dipolar coupling, use of pure CHCl3 with a lower polarity (ε=4.8), increases KE to 790,000±30,000 M^−1 (S.-L. Lee, Z. Yuan, L. Chen, K. S. Mali, K. Müllen, S. De Feyter, J Am. Chem. Soc. 2014, 136, 4117-4120; S.-L. Lee, Z. Yuan, L. Chen, K. S. Mali, K. Müllen, S. De Feyter, J. Am. Chem. Soc. 2014; P. Samori, N. Severin, C. D. Simpson, K. Müllen, J. P. Rabe, J. Am. Chem. Soc. 2002, 124, 9454-9457).
# [8] = Cyclic voltammetry in solution; assay type: physicochemical; details: 1×10^−3 M, 0.1 M tetrabutylammonium hexafluorophosphate, glassy carbon working electrode, chloroform, room temperature
# From the text: FIG. 7 depicts a representative current-voltage response curve recorded using cyclic voltammetry of tricarb of Formula (IB) in solution. […] Conditions: [tricarb of Formula (IB)]=1×10^−3 M, 0.1 M tetrabutylammonium hexafluorophosphate, glassy carbon working electrode, platinum counter electrode, chloroform, room temperature, Ar degassed.
# [9] = SbF6^− as tetrabutylammonium salt
# [10] = listed as tricarb of Formula (I)
# [11] = ClO4^− as tetrabutylammonium salt
# [12] = PF6^− as tetrabutylammonium salt
# [13] = ReO4^− as tetrabutylammonium salt
# [14] = FeCl4^− as 1-ethyl-3-methylimidazolium salt
structure (smiles),measurement,setting,value
"CCCCCCCCCCn1c2ccc3cc2c2cc(ccc21)n1cc(nn1)c1ccc2c(c1)c1cc(ccc1n2CCCCCCCCCC)n1cc(nn1)c1ccc2c(c1)c1cc(ccc1n2CCCCCCCCCC)n1cc3nn1 [tricarb of Formula (IB), tridecyl-tricarbazolo-triazolophane]",logK1,[1]; [9],5.2 ± 0.2
same,logK2,[1]; [9],6.4 ± 0.2
same,logβ2,"[1]; SbF6^− as tetrabutylammonium salt, listed as Tricarb of Formula (IB)",11.6
same,logβ2,"[1]; SbF6^− as tetrabutylammonium salt, listed as tricarb",11.6 ± 0.4
same,K2/K1,[1]; listed as tricarb,30 ± 20
same,K2/K1,[1]; [10],~30
same,logK1,[2]; [11],4.04 ± 0.01
same,logK2,[2]; [11],5.87 ± 0.01
same,logβ2,"[2]; ClO4^− as tetrabutylammonium salt, listed as Tricarb of Formula (IB)",10
same,logβ2,"[2]; ClO4^− as tetrabutylammonium salt, listed as tricarb",10.04 ± 0.02
same,K2/K1,[2]; listed as tricarb,67 ± 3
same,K2/K1,[2]; [10],~70
same,logβ2,"[3]; I^− as tetrabutylammonium salt, 2:1 sandwich",9.3 ± 0.3
same,logK1,"[3]; I^− as tetrabutylammonium salt, tricarb+X^− = tricarb·X^−",4.3 ± 0.1
same,logK2,"[3]; I^− as tetrabutylammonium salt, tricarb·X^−+tricarb = tricarb2·X^−",5.1 ± 0.2
same,K2/K1,[3]; listed as tricarb,6 ± 3
same,K2/K1,[3]; [10],~5
same,logK1,[4]; [12],4.46 ± 0.01
same,logK2,[4]; [12],6.94 ± 0.01
same,logβ2,"[4]; PF6^− as tetrabutylammonium salt, listed as Tricarb of Formula (IB)",11.4
same,logβ2,"[4]; PF6^− as tetrabutylammonium salt, listed as tricarb",11.40 ± 0.02
same,K2/K1,[4]; listed as tricarb,300 ± 60
same,K2/K1,[4]; [10],300
same,logK1,[5]; [13],3.8 ± 0.1
same,logK2,[5]; [13],6.2 ± 0.1
same,logβ2,"[5]; ReO4^− as tetrabutylammonium salt, 2:1 sandwich",10.0 ± 0.2
same,K2/K1,[5]; listed as tricarb,200 ± 100
same,K2/K1,[5]; [10],200
same,logK1,[6]; [14],4.0 ± 0.1
same,logK2,[6]; [14],3.7 ± 0.2
same,logβ2,"[6]; FeCl4^− as 1-ethyl-3-methylimidazolium salt, 2:1 sandwich",7.7 ± 0.3
same,K2/K1,[6]; listed as tricarb,5.2 ± 0.2
same,K2/K1,[6]; [10],~5
same,self-association (KE),"[7]; 20% MeOH/CHCl3 (ε=10.4), 0.7 to 24×10^−6 M","300,000±10,000 M^−1"
same,self-association (KE),[7]; pure CHCl3 (ε=4.8),"790,000±30,000 M^−1"
same,half-wave oxidation potential E1/2,[8],0.8 V vs Ag/AgCl
same,peak potentials,[8],0.95 V and 0.65 V

# Source: patent US10202395B2, “Macrocycle with repeating triazole-carbazole units” (INDIANA UNIVERSITY RESEARCH & TECHNOLOGY CORPORATION, priority 2015, dated 2019)
